Laboratory results published in PMC11965169, “Flavin-containing siderophore-interacting protein of Shewanella putrefaciens DSM 9451 reveals common structural and functional aspects of ferric–siderophore reduction” (Journal of Biological Inorganic Chemistry, 2025).

How the values were obtained:
[1] = target: T1, SbSIP (siderophore-interacting protein, flavin-containing siderophore reductase) (Shewanella bicestrii, UniProt A0A220UGT4); experiment: X-ray crystal structure, […] Å; format: binding
T1 construct: gene CF168_00510; Trx-His10 tag-free SbSIP; chains A and B, residues 1-3/247-251 and 1-5/249-251 not modelled
T1 sequence (A0A220UGT4 1-250): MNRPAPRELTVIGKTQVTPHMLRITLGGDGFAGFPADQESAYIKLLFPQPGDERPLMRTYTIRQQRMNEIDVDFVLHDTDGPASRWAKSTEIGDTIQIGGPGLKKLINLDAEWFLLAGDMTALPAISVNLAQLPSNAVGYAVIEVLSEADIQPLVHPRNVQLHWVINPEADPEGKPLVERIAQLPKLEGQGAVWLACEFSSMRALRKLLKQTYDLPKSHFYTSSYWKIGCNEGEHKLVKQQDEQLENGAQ

[2] = target: T2, SbSIP (siderophore-interacting protein, flavin-containing siderophore reductase) (Shewanella bicestrii, UniProt A0A220UGT4); experiment: […] NMR titration (slow exchange); format: binding
T2 construct: gene CF168_00510

[3] = target: T2, SbSIP (siderophore-interacting protein, flavin-containing siderophore reductase); experiment: […] NMR titration (fast exchange, chemical shift perturbation); format: binding
[4] = target: T2, SbSIP (siderophore-interacting protein, flavin-containing siderophore reductase); experiment: stopped-flow reduction of ferric siderophore by purified SbSIPsemi, […] nm; format: biochemical

For `Cc1cc2nc3c(=O)[nH]c(=O)nc-3n(C[C@H](O)[C@H](O)[C@H](O)COP(=O)(O)OP(=O)(O)OC[C@H]3O[C@@H](n4cnc5c(N)ncnc54)[C@H](O)[C@@H]3O)c2cc1C` [FAD], the “X-ray crystal structure, 1.86 Å” value [1] was “contained two SbSIP protein chains (A and B), each one bound to an FAD moiety”.
Work on `NC(=O)C1=CN([C@@H]2O[C@H](COP(=O)(O)OP(=O)(O)OC[C@H]3O[C@@H](n4cnc5c(N)ncnc54)[C@H](O)[C@@H]3O)[C@@H](O)[C@H]2O)C=CC1` [NADH] yielded a Kd [2] of 17 ± 5 µM.
With `NC(=O)C1=CN([C@@H]2O[C@H](COP(=O)(O)OP(=O)(O)OC[C@H]3O[C@@H](n4cnc5c(N)ncnc54)[C@H](OP(=O)(O)O)[C@@H]3O)[C@@H](O)[C@H]2O)C=CC1` [NADPH] the Kd [3] was 107 ± 2 µM.
Fe(III)–bisucaberin was tested, and the “stopped-flow reduction of ferric siderophore by purified SbSIPsemi, 600 nm” value [4] was 0.0014 ± 2 × 10^–4.
In the case of Fe(III)–putrebactin, the “stopped-flow reduction of ferric siderophore by purified SbSIPsemi, 600 nm” value [4] is reported as 0.0031 ± 5 × 10^–5.
